Laboratory results from US20100113613A1, “CYCLOHEXANE POLYALCOHOL FORMULATION FOR TREATMENT OF DISORDERS OF PROTEIN AGGREGATION” (WARATAH PHARMACEUTICALS, priority 2006, published 2010).

Columns and labels:
[1] = Brain and CSF levels of inositols after one month ad libitum dosing (GC/MS), Example 2; assay type: in vivo, TgCRND8 mice; conditions: TgCRND8 mice, myo-cyclohexanehexyl ad libitum for one month
Method: Study drugs were administered either at 30 mg/kg by oral gavage, or ad libitum by dissolution in drinking water. For administration in drinking water, study drugs were dissolved at 10 mg/ml. The average amount of water taken from the bottle was 3 ml daily per animal. The average mouse weight was 33 g. […] Quantification of scyllo-cyclohexanehexyl and myo-inositol. Scyllo-cyclohexanehexyl and myo-cyclohexanehexyl levels in the brain and CSF were analyzed using gas chromatography/mass spectrometry. D-chiro-inositol was used as an internal control, as it is not present in these biological samples. Derivatization: To increase the volatility and thermal stability of these compounds and to allow for proper peak separation, these samples need to first be derivatized. The derivatization was adapted from a method presented previously (Shetty, H U, et al, 1995, Anal. Biochem. 224:279-85), where the hydroxyl groups of the cyclohexanehexyl were replaced with acetyl groups. […] Similarly, a 5-15 μl sample of CSF was mixed with 1 ml of methanol and allowed to stand at room temperature for 5 minutes. The resulting suspension was centrifuged (5 min, 5000×g) and the supernatant transferred to a glass tube (Teflon-lined cap). […] These samples were then evaporated to complete dryness (Speedvac; 60° C.). […] This mixture was flushed with dry nitrogen, securely capped and the tubes heated (80° C.; 30 min). Following derivatization, samples were cooled (RT) and the unreacted acetylating reagent evaporated using a steady stream of nitrogen gas. The derivatized products were re-dissolved (4 ml; hexane-ethyl acetate (80:20, v/v)) and washed with 1 ml of 5% sodium hydrogencarbonate solution. […] The residue was reconstituted in 100 μl; ethyl acetate. 1 μL of this was injected into the GC/MS system. A similar procedure was followed using stock concentrations of scyllo- and myo-cyclohexanehexols, which were then used to generate concentration curves (in this case the internal standard was derivatized separately and then added). GC/MS was performed using a Perkin Elmer TurboMass Autosystem XL, with a quadrupole mass spectrometer and electron ionization. Gas chromatography was performed using a 30 m×0.25 mm×0.25 μm ZB 5 (5% diphenyl/95% dimethylpolysiloxane) column, using the carrier gas Helium (1 ml/min). Samples were injected with the split set to 50 at 1 min and 0 at 5 min, the injector temperature was set at 300° C. and an initial oven temperature of 80° C. After a hold of 1 min, the temperature was ramped at 45° C./min to 187° C. and held there for 15 min. […] Sample peaks were analyzed using selected-ion monitoring, using m/z 168 for determining cyclohexanehexyl levels in the brain and CSF and m/z 373 for determining cyclohexanehexyl levels in plasma, as monitoring the larger ion reduced noise. […]

[2] = Orally administered tritiated-inositol uptake in plasma and brain (FIG. 16); assay type: in vivo
Method: FIG. 16. Bioavailability of scyllo- (solid line) and myo-inositol (dashed line) in plasma and brain, determined using orally administered tritiated-inositol uptake studies. […] Brain levels also rose rapidly and were maximal at 8 h and 32 h, respectively.

[3] = TgCRND8 (outbred C3H/C57B16 background), mouse, in vivo
TgCRND8 mice = conditions: despite in vitro efficacy

## O[C@H]1[C@H](O)[C@@H](O)[C@H](O)[C@@H](O)[C@H]1O [myo-inositol, reference compound]
[1]; p<0.001
  increase of myo-cyclohexanehexyl level in brain vs untreated: 20%
[1]; p=0.35
  levels of myo-cyclohexanehexyl in CSF vs untreated: did not show any significant changes
[2]
  time of maximal brain levels: 8 h
  time of peak plasma levels post administration: 2 h
[3]
  increase in brain myo inositol levels over untreated controls: 1.2 fold
TgCRND8 mice
  efficacy for the treatment of TgCRND8 mice: not shown to be effective
